For 34 compounds, chromatographic logP and pest or weed control results are on record in patent publication US9428487B2, “Heteroaromatic amides and thioamides as pesticides” (Bayer Intellectual Property GmbH, priority 2008, dated 2016).

Like-named read-outs stand apart in the source and are kept apart here. Where only a bound is given, the exact number is not on record here.

The nature of data set [1]: Determination of log P values by HPLC on reversed-phase column (formic acid method). Type of data set: physicochemical. The following applies: reversed-phase C 18, acidic range (pH 3.4), formic acid eluents, 55° C., read-out: logP (HCOOH). The method, boiled down:
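Reversed-phase C18 HPLC per EEC Directive 79/831 Annex V.A8, pH 3.4, acetonitrile/water with formic acid, gradient 10% to 95% acetonitrile in 4.25 min. log P obtained from retention times by linear interpolation between successive unbranched alkan-2-ones (C3–C16) of known log P.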

The test system of data set [2] is green peach aphid (Myzus persicae). Description: Myzus test. Particulars: read-out: efficacy (aphids killed). Type of data set: in vivo. An outline of the steps:
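Active ingredient formulated in acetone/dimethylformamide with alkylaryl polyglycol ether emulsifier, diluted in emulsifier-containing water. Sprayed onto Chinese cabbage leaf discs carrying all aphid stages; % efficacy scored after set time (100% = all aphids dead).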

[3] abbreviates: reversed-phase HPLC column (C 18), pH 3.4, HPLC.
Where [4] appears, read: application rate 500 g/ha, spray on Chinese cabbage leaf slices.

Regarding `Cc1nc(-c2cccnc2)sc1C(=O)N(C)CC(F)F` [Compound 41], in data set [1] (setting [3]), the chromatographic logP turned out to be 1.48. Moreover, the pest or weed control at 500 g/ha in data set [2] (setting [4]) is at least 70%.
Turning to `CC(=O)CNC(=O)c1sc(-c2cccnc2)nc1C` [Compound 175], the chromatographic logP in data set [1] (setting [3]) came to 1.02. In addition, in data set [2] (setting [4]), the pest or weed control at 500 g/ha is at least 70%.
On to `COC(=O)N(CC(F)(F)F)C(=O)c1sc(-c2cccnc2)nc1C` [Compound 116], for which the chromatographic logP in data set [1] (HPLC) turned out to be 2.46. Further, in data set [2] (in Brassica rapa), the pest or weed control at 500 g/ha was at least 70%.
As for `Cc1nc(-c2cccnc2)sc1C(=O)NCc1nc(C2CC2)no1` [Compound 172], the chromatographic logP in data set [1] (setting [3]) worked out at 1.63. Besides, in data set [2] (setting [4]), the pest or weed control at 500 g/ha is at least 70%.
`Cc1nc(-c2cccnc2)sc1C(=O)NC(C)c1ccccn1` (centres unmarked) [Compound 87]: the chromatographic logP in data set [1] (setting [3]) was 1.1. In addition, in data set [2] (setting [4]), the pest or weed control at 500 g/ha was at least 70%.
With `CSC[C@H](C)NC(=O)c1cnc(-c2cccnc2)s1` [Compound 191], in data set [1] (setting [3]), the chromatographic logP amounted to 1.53. Besides, the pest or weed control at 500 g/ha in data set [2] (setting [4]) is at least 70%.
`Cc1nc(-c2cccnc2)sc1C(=O)NCc1ccncc1` [Compound 169]: in data set [1] (setting [3]), the chromatographic logP came to 0.69. The pest or weed control at 500 g/ha in data set [2] (setting [4]) was at least 70%.
With `N#CCNC(=O)c1cnc(-c2cccnc2)s1` [Compound 79], the chromatographic logP in data set [1] (setting [3]) turned out to be 0.88. Besides, in data set [2] (setting [4]), the pest or weed control at 500 g/ha is at least 70%.
As to `O=C(NCc1ccncn1)c1cnc(-c2cccnc2)s1` [Compound 81], the chromatographic logP in data set [1] (setting [3]) was 0.73. In data set [2] (setting [4]), the pest or weed control at 500 g/ha was at least 70%.
On the same counts, the results for `CCOC(=O)C(CC)N(C)C(=O)c1sc(-c2cccnc2)nc1C` (centres unmarked) [Compound 141] are 2.1 and at least 70%.
As to `Cn1nc(-c2cccnc2)cc1C(=O)NCC(C)(F)F` [Compound 24], the chromatographic logP in data set [1] (setting [3]) turned out to be 0.91. The pest or weed control at 500 g/ha in data set [2] (setting [4]) was at least 70%.
`Cc1nc(-c2cccnc2)sc1C(=O)NCc1ncc(Cl)cn1` [Compound 147]: the chromatographic logP in data set [1] (setting [3]) was found to be 1.45. Moreover, in data set [2] (setting [4]), the pest or weed control at 500 g/ha was at least 70%.
Regarding `CN(C)C(=O)c1cnc(-c2cccnc2)s1` [Compound 46], the chromatographic logP in data set [1] (setting [3]) came out at 0.91. Besides, the pest or weed control at 500 g/ha in data set [2] (setting [4]) was at least 70%.
Regarding `Cc1nc(-c2cccnc2)sc1C(=O)NC(C)c1ncccn1` (centres unmarked) [Compound 37], the chromatographic logP in data set [1] (setting [3]) stood at 1.24. Further, the pest or weed control at 500 g/ha in data set [2] (setting [4]) is at least 70%.
Turning to `Cc1nc(-c2cccnc2)sc1C(=O)NNc1ncccn1` [Compound 128], in data set [1] (setting [3]), the chromatographic logP stood at 0.75. Moreover, the pest or weed control at 500 g/ha in data set [2] (setting [4]) is at least 70%.
As to `Cc1cc(CNC(=O)c2sc(-c3cccnc3)nc2C)n(C)n1` [Compound 105], the chromatographic logP in data set [1] (setting [3]) was determined as 1.23. Further, the pest or weed control at 500 g/ha in data set [2] (setting [4]) is at least 70%.
Take `Cc1nc(-c2cccnc2)sc1C(=O)NN1CCCC1` [Compound 201]: in data set [1] (setting [3]), the chromatographic logP was 1.37. In data set [2] (setting [4]), the pest or weed control at 500 g/ha is at least 70%.
On to `COC(=O)N(C)NC(=O)c1sc(-c2cccnc2)nc1C` [Compound 196], for which the chromatographic logP in data set [1] (HPLC) came out at 1.23. Further, the pest or weed control at 500 g/ha in data set [2] (setting [4]) was at least 70%.
Take `COC(C)(CNC(=O)c1sc(-c2cccnc2)nc1C)OC` [Compound 174]: in data set [1] (setting [3]), the chromatographic logP is 1.44. Also, in data set [2] (setting [4]), the pest or weed control at 500 g/ha is at least 70%.
On to `NC(=O)c1cnc(-c2cccnc2)s1` [Compound 72], for which the chromatographic logP in data set [1] (setting [3]) was 0.29. Moreover, the pest or weed control at 500 g/ha in data set [2] (setting [4]) is at least 70%.
In the case of `Cc1nc(-c2cccnc2)sc1C(=O)N(CC#N)C(=O)C1(F)CC1` [Compound 140], the chromatographic logP in data set [1] (setting [3]) was 1.93. Further, the pest or weed control at 500 g/ha in data set [2] (setting [4]) was at least 70%.
On the same counts, the results for `Cc1cc(C)nc(CNC(=O)c2sc(-c3cccnc3)nc2C)n1` [Compound 95] are 1.24 and at least 70%.
For `CN(Cc1ncccn1)C(=O)c1cnc(-c2cccnc2)s1` [Compound 102], the chromatographic logP in data set [1] (setting [3]) worked out at 1.3. The pest or weed control at 500 g/ha in data set [2] (setting [4]) is at least 70%.
On the same counts, the results for `Cc1nc(-c2cccnc2)sc1C(=O)NC1CSC1` [Compound 194] are 1.47 and at least 70%.
On the same counts, the results for `COC(=O)C[n+]1cccc(-c2nc(C)c(C(=O)NCC(F)(F)F)s2)c1` [Compound 138] are 1.09 and at least 70%.
Regarding `Cc1nc(-c2cccnc2)sc1C(=O)NN1CCOCC1` [Compound 203], in data set [1] (setting [3]), the chromatographic logP is 1.23. The pest or weed control at 500 g/ha in data set [2] (setting [4]) was at least 70%.
As for `CNC(=O)c1cnc(-c2cccnc2)s1` [Compound 59], the chromatographic logP in data set [1] (setting [3]) is 0.62. Besides, the pest or weed control at 500 g/ha in data set [2] (setting [4]) was at least 70%.
In the case of `Cc1cc(CNC(=O)c2sc(-c3cccnc3)nc2C)no1` [Compound 98], the chromatographic logP in data set [1] (setting [3]) was found to be 1.45. Further, in data set [2] (setting [4]), the pest or weed control at 500 g/ha is at least 70%.
For `CN(C)C(=O)c1nnc(-c2cccnc2)s1` [Preparation Example 8, N,N-dimethyl-5-pyridin-3-yl[1,3,4]thiadiazole-2-carboxamide], the chromatographic logP in data set [1] (HPLC) was 0.95. Moreover, the pest or weed control at 500 g/ha in data set [2] (in Brassica rapa) was at least 70%.
As to `Cc1nc(-c2cccnc2)sc1C(=O)NCc1ccncn1` [Compound 126], in data set [1] (setting [3]), the chromatographic logP worked out at 0.9. For the same compound, the pest or weed control at 500 g/ha in data set [2] (setting [4]) was at least 70%.
Consider `O=C(N[C@H]1C[C@@H]1F)c1cnc(-c2cccnc2)s1` [Compound 118], for which, in data set [1] (setting [3]), the chromatographic logP came out at 1.14. For the same compound, in data set [2] (setting [4]), the pest or weed control at 500 g/ha was at least 70%.
On to `Cc1nc(-c2cccnc2)sc1C(=O)NCc1ccccn1` [Compound 90], for which the chromatographic logP in data set [1] (setting [3]) is 0.78. In addition, the pest or weed control at 500 g/ha in data set [2] (setting [4]) is at least 70%.
On to `Cc1nc(-c2ccc[n+]([O-])c2)sc1C(=O)NCC(F)(F)F` [Compound 78], for which, in data set [1] (setting [3]), the chromatographic logP was 1.31. Further, the pest or weed control at 500 g/ha in data set [2] (setting [4]) is at least 70%.
On the same counts, the results for `CN(CC(C)(F)F)C(=O)c1cc(-c2cccnc2)nn1C` [Compound 27] are 0.99 and at least 70%.
